Reference: US20260151400A1, “USE OF ANTAGONISTS OF NEUROKININ-1 RECEPTOR AND NUCLEOSIDE ANALOGS FOR THE TREATMENT OF HERPESVIRIDAE” (THE REGENTS OF THE UNIVERSITY OF COLORADO, a body corporate, priority 2022, published 2026)

What was measured:
[1] = IV acyclovir; precipitation of aciclovir crystals in the kidney; cited from earlier work
[2] = target: NK-1 receptors in the brain (Homo sapiens, UniProt P25103); conditions: occupies NK-1 receptors in the brain; cited from earlier work
[3] = tested on: uninfected HA-sp (primary human spinal astrocytes); conditions: aprepitant tested at 1-100 μM, data not shown
Procedure: After 24 hours, medium was changed to basal astrocyte medium containing 0.1% FBS and 1% 100× penicillin-streptomycin that was replenished every 72 hours for 7 days to establish quiescence. On day 7, spinal astrocytes were co-cultivated with VZV-infected spinal astrocytes (40 pfu/mL) or mock-infected spinal astrocytes.

Chain of NK-1 receptors in the brain (P25103 whole entry): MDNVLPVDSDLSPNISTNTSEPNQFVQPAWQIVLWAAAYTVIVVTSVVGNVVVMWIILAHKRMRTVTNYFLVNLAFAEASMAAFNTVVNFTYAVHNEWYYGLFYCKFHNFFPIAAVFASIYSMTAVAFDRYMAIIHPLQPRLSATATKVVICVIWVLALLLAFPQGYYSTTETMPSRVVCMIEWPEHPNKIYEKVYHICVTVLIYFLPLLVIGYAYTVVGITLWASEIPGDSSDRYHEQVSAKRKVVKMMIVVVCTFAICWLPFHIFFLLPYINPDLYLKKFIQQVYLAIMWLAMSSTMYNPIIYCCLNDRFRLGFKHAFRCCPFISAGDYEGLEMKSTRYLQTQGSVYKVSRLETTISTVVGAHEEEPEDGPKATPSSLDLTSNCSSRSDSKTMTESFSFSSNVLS

Compound	patients with reversible nephrotoxicity [1]	blood-brain barrier crossing [2]	optimal concentration to avoid cell death [3] [µM]
Nc1nc2c(ncn2COCCO)c(=O)[nH]1 [acyclovir]	5-10%		
C[C@@H](O[C@H]1OCCN(Cc2n[nH]c(=O)[nH]2)[C@H]1c1ccc(F)cc1)c1cc(C(F)(F)F)cc(C(F)(F)F)c1 [aprepitant]		crosses the blood-brain barrier	10
